Tests used:
[1] = tested on: Ipomoea hederacea; assay: Weed control screen: entireleaf morningglory; format: in vivo; settings: 1.0 lb ai/a, applied approximately 3 weeks after emergence, relative to non-treated
Procedure: (§1) Herbicides were applied at a spray volume of 280 L/ha with no adjuvant added to any herbicide mixture. Weed control was rated on a 0 to 100 percent phytoxicity scale with 0 being no plant injury/phytotoxicity and 100 being complete plant dessication. Twenty-one weeds were evaluated for response to herbicides (Table 3). The weeds selected were a mixture of weeds common in agronomic and horticultural crops. Herbicide was applied to all species approximately 3 weeks after emergence. Plant phytotoxicity rated as percent control relative to the non-treated.

[2] = tested on: Jaquemontia tamnifolia; assay: Weed control screen: smallflower morningglory; format: in vivo; settings: 1.0 lb ai/a, applied approximately 3 weeks after emergence, relative to non-treated
Procedure: as §1

[3] = tested on: Senna obtusifolia; assay: Weed control screen: sicklepod; format: in vivo; settings: 1.0 lb ai/a, applied approximately 3 weeks after emergence, relative to non-treated
Procedure: as §1

[4] = molecular target: recombinant variant E. indica PPO1 A212T (Eleusine indica, UniProt A0A6G5XNV7, A212T); assay: In vitro PPO enzyme activity inhibition, variant PPO1 A212T; format: biochemical
Chain of recombinant variant E. indica PPO1 A212T (A0A6G5XNV7 entry or part of it A212T): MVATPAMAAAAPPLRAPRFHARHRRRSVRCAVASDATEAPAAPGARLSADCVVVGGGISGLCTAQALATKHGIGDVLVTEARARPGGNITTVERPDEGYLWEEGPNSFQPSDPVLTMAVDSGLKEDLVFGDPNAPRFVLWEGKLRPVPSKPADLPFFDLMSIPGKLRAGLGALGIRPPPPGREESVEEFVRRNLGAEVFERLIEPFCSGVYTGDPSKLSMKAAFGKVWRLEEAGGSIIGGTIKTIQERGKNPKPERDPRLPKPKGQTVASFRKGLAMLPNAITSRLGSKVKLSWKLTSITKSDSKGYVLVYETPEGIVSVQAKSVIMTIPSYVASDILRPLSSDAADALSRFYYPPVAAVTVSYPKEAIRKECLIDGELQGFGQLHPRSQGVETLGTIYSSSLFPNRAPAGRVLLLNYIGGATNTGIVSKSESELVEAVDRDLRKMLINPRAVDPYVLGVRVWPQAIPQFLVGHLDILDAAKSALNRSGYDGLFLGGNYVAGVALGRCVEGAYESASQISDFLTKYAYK
Text: Effects of A212T substitution were studied using the E. indica backbone. The wild-type E. indica PPO1 and the E. indica PPO1 A212T variants were synthesized de novo and subcloned into pRSetB plasmid (Invitrogen, Carlsbad, Calif.). The complete description of expression and purification of E. indica PPO1 and E. indica PPO1 A212T variant proteins were referenced to the method described for PPO2 by Rangani et al. (2019, Frontiers in Plant Sci., 10:568). Six PPO inhibitors, belonging to five different chemical families, were evaluated on the PPO enzyme activity at a concentrations ranging from 5.00×10^−5M to 5.12×10^−12M. Oxadiazon, sulfentrazone, saflufenacil and lactofen are from the class of oxadiazole, triazolinone, pyrimidinedione, and diphenyl ether, respectively. Flumioxazin and trifludimoxazin are from the same chemical family, N-phenylphthalimide. […] The assay was replicated twice.

[5] = tested on: Amaranthus palmeri; assay: Weed control screen: glyphosate resistant palmer amaranth; format: in vivo; settings: 1.0 lb ai/a, applied approximately 3 weeks after emergence, relative to non-treated
Procedure: as §1

[6] = tested on: Kyllinga squamulata; assay: Weed control screen: cock's comb kyllinga; format: in vivo; settings: 1.0 lb ai/a, applied approximately 3 weeks after emergence, relative to non-treated
Procedure: as §1

[7] = tested on: Eleusine indica; assay: Weed control screen: goosegrass; format: in vivo; settings: 1.0 lb ai/a, applied approximately 3 weeks after emergence, relative to non-treated
Procedure: as §1

[8] = tested on: Ipomoea coccinea; assay: Weed control screen: red morningglory; format: in vivo; settings: 1.0 lb ai/a, applied approximately 3 weeks after emergence, relative to non-treated
Procedure: as §1

[9] = tested on: Cyperus iria; assay: Weed control screen: rice flatsedge; format: in vivo; settings: 1.0 lb ai/a, applied approximately 3 weeks after emergence, relative to non-treated
Procedure: as §1

[10] = tested on: Sesbania exaltata; assay: Weed control screen: hemp sesbania; format: in vivo; settings: 1.0 lb ai/a, applied approximately 3 weeks after emergence, relative to non-treated
Procedure: as §1

[11] = tested on: Eleusine indica biotypes (S, R1, R2); assay: Herbicide rate screening assay (greenhouse, foliar-applied, visual injury); format: in vivo; settings: for I50, estimated rate required to reduce Eleusine indica biotype by 50% (Visual Control/Injury) / I90, estimated rate required to reduce Eleusine indica biotype by 90% (Visual Control/Injury): injury scores 14 days after treatment; for Parameter estimate a of sigmoidal model y = a/(1 + exp(−(x − x0)/b)) for percent injury / Parameter estimate b of sigmoidal model y = a/(1 + exp(−(x − x0)/b)) for percent injury / Parameter estimate x0 of sigmoidal model y = a/(1 + exp(−(x − x0)/b)) for percent injury: x = log-transformed herbicide rate (kg/ha), 14 DAT; for Control at labelled rate application: oxadiazon 2.24 kg/ha
Text: Three E. indica biotypes from different locations were used in this study. The R1 biotype was collected in Country Club of Virginia, Richmond, Va., and the R2 biotype was from River Bend Golf, New Bern, N.C. These two biotypes were previous confirmed resistant to preemergence application of oxadiazon, but have not been screened to other PPO inhibitors. The S biotype was collected from the Alabama Agricultural Experiment Station, Plant Breeding Unit, Tallassee, Ala., which was confirmed susceptible to PPO inhibitors. Seeds of the mature plants were harvested, air dried and stored in the 4° C. freezer until planted in the greenhouse.
Greenhouse conditions were 30±3° C. at day/night temperature and ˜70% average relative humidity. The E. indica seeds were placed on the soil surface and lightly covered with sand in 28 cm*20 cm flats and watered as needed daily to ensure germination. Two weeks after emergence, seedlings were separated and transplanted to in individual 10-cm pots (volumes=0.5 L). Pots were filled with surface horizon of Marvyn sandy loam (fine-loamy, kaolinitic, thermic Typic Kanhapludults) soil with pH 6.4 and 1.2% organic matter. The plants were irrigated three times daily for 2 min with overhead irrigation and fertilized once at one week after transplanting at approximately 50 kg N ha^−1 with Scott's Miracle-Gro All-Purpose fertilizer (The Scotts Miracle-Gro Co. Marysville, Ohio). Plants were 5-10 cm in height with 3-5 tillers in size at the time of herbicide treatment.
Herbicide treatments were foliar-applied at 280 L/ha using an enclosed spray chamber with a single 8002E nozzle (TeeJet Spray Systems Co, Wheaton, Ill.) at 32 PSI. Four herbicides were selected for the experiment: oxadiazon (Ronstar FLO, Bayer Environmental Sci., Research Triangle Park, N.C.), sulfentrazone (Dismiss, FMC Corporation, Philadelphia, Pa.), flumioxazin (Sureguard, Valent Corp., Walnut Creek, Calif.) and lactofen (Cobra, Valent Corp., Walnut Creek, Calif.). All the herbicides are from different herbicide chemical families of PPO inhibitors: oxadiazoles, triazolinone, N-phenylphthalimide and diphenyl ether, respectively. Herbicides were applied at 7 different rates based on each herbicide label rate: oxadiazon ranging from 0.14 to 8.96 kg/ha, sulfentrazone from 0.07 to 4.50 kg/ha, flumioxazin from 0.08 to 5.70 kg/ha, and lactofen from 0.029 to 1.75 kg/ha. A non-treated control (0 kg/ha) was included. 192 plants of each biotype were tested and experiments were conducted as completely random design, three replications for two runs.
The visual injury rating scores per plant at 14 days after treatment (DAT) were recorded, where the visual injury rating scores were based on a 0 to 100 scale, which 0 is equated to no phytotoxicity and 100 is equated to complete control. Data subjected to ANOVA analysis at a significance level of P<0.05 using the PROC GLM procedure of SAS 9.4 (SAS Institute Inc., Cary, N.C.). All the herbicide rates were log transformed to make equal spacing between the herbicide treatments in order to facilitate regression analysis. The non-treated control was transformed to equal spacing based on the log rates of each herbicide, respectively. Data were fitted to a sigmoidal model using SigmaPlot 10.2 (Systat Software Inc., London, UK) using a sigmoidal function (Equation 1).
y=a/(1+e^(−((x−x0)/b))) (1)
In this fit sigmoidal model, where y represents E. indica visual damage relative to non-treated control (%), x represents the log-transformed herbicide rates (kg/ha), three parameters (a, b, x0) represents the y intercept.

In the case of `CC(C)Oc1cc(-n2nc(C(C)(C)C)oc2=O)c(Cl)cc1Cl` [Oxadiazon, oxadiazon], the “Percent control (0 to 100)” value [1] is reported as 100%, the “Percent control (0 to 100)” value [2] is reported as 90% and the “Percent control (0 to 100)” value [3] is reported as 90%. For the same molecule, the IC50 [4] was greater than 10 µM, the inhibition at 10 µM ([4]; read-out: Variant E. indica PPO1 A212T % inhibition) was 16% and the “Percent control (0 to 100)” value [5] was 75%. The “Percent control (0 to 100)” value [6] was 75%, the “Percent control (0 to 100)” value [7] was 100% and the “Percent control (0 to 100)” value [8] was 100%. The “Percent control (0 to 100)” value [9] was 60%, the “Percent control (0 to 100)” value [10] was 100% and the “Increased resistance of oxadiazon resistant biotypes than the susceptible biotype” value ([11]; R1 and R2 vs S biotype, post-emergence applied) was “up to 20 fold”. The “I50, estimated rate required to reduce Eleusine indica biotype by 50% (Visual Control/Injury)” value ([11]; R1 biotype) was 8.15 kg ha^−1, the “I90, estimated rate required to reduce Eleusine indica biotype by 90% (Visual Control/Injury)” value ([11]; R1 biotype) was 14.60 kg ha^−1 and the “Parameter estimate a of sigmoidal model y = a/(1 + exp(−(x − x0)/b)) for percent injury” value ([11]; R1 biotype) was 9925.40. The “Parameter estimate b of sigmoidal model y = a/(1 + exp(−(x − x0)/b)) for percent injury” value (“Parameter estimate b … for percent injury” for short) ([11]; R1 biotype) was 0.53, the “Parameter estimate x0 of sigmoidal model y = a/(1 + exp(−(x − x0)/b)) for percent injury” value (from here on “Parameter estimate x0 … for percent injury”) ([11]; R1 biotype) was 3.75 and the “I50, estimated rate required to reduce Eleusine indica biotype by 50% (Visual Control/Injury)” value ([11]; R2 biotype) was 8.88 kg ha^−1. For the same molecule, the “I90, estimated rate required to reduce Eleusine indica biotype by 90% (Visual Control/Injury)” value ([11]; R2 biotype) was 18.29 kg ha^−1, the “Parameter estimate a of sigmoidal model y = a/(1 + exp(−(x − x0)/b)) for percent injury” value ([11]; R2 biotype) was 64371.40 and the “Parameter estimate b … for percent injury” value ([11]; R2 biotype) was 0.43. For the same molecule, the “Parameter estimate x0 … for percent injury” value ([11]; R2 biotype) was 3.99, the “I50, estimated rate required to reduce Eleusine indica biotype by 50% (Visual Control/Injury)” value ([11]; S biotype) was 0.32 kg ha^−1 and the “I90, estimated rate required to reduce Eleusine indica biotype by 90% (Visual Control/Injury)” value ([11]; S biotype) was 1.56 kg ha^−1. The “Control at labelled rate application” value ([11]; S biotype) was greater than 80%, the “Parameter estimate a of sigmoidal model y = a/(1 + exp(−(x − x0)/b)) for percent injury” value ([11]; S biotype) was 91.25 and the “Parameter estimate b … for percent injury” value ([11]; S biotype) was 0.25. For the same molecule, the “Parameter estimate x0 … for percent injury” value ([11]; S biotype) was −0.54, the “Control at labelled rate application” value ([11]; resistant biotypes (R1 and R2), flumioxazin 0.357 kg/ha, sulfentrazone 0.28 kg/ha, lactofen 0.22 kg/ha) was less than 20% and the “Control at labelled rate application” value ([11]; resistant biotypes (R1 and R2), flumioxazin 0.357 kg/ha, sulfentrazone 0.28 kg/ha, lactofen 0.22 kg/ha, listed as oxadiazon) was “less than 10%”.

Reference: patent publication US20220282271A1, “HERBICIDE RESISTANT PLANTS AND METHODS OF MAKING AND USING” (OFFICE OF INNOVATION ADVANCEMENT AND COMMERCIALIZATION, priority 2019, published 2022)
